Experimental findings from patent US8946203B2, “Benzodioxane inhibitors of leukotriene production” (Boehringer Ingelheim International GmbH, priority 2012, dated 2015) are described below.

Counter-ions that a name gives are not always drawn. Like-named read-outs stand apart in the source and are kept apart here.

One assay addresses T1, human LTA4 hydrolase (Homo sapiens, UniProt P09960).
T1 sequence (P09960 1-611): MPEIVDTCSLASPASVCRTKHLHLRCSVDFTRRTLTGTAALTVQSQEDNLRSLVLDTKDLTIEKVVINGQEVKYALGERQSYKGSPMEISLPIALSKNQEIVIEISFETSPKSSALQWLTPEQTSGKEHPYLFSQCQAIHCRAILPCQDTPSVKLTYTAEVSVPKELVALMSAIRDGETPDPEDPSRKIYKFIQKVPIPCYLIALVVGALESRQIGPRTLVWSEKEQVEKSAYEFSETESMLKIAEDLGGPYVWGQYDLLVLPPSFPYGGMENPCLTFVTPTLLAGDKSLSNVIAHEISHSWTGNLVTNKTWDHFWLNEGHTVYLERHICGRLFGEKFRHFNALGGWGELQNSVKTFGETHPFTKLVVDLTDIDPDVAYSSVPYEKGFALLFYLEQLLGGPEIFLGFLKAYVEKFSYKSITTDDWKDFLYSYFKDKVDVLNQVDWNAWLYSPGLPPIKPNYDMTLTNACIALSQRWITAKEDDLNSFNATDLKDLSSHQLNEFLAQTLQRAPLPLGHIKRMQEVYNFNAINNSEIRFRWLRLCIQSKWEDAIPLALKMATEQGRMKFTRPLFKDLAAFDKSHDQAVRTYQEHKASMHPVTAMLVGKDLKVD
The assay can be described thus: LTA4H Enzyme assay (cleavage of Arg-AMC, fluorescence). It is filed as biochemical. The essentials:
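Aminomethylcoumarin release measured fluorimetrically (380/460 nm) after 1 h at room temperature. Reaction: 1 nM final enzyme, 50 μM final Arg-AMC and compound in Tris-HCl pH 7.5 with 100 mM KCl and 0.5% BSA.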

For assay [1], the system named is synthesis of LTB4 in human whole blood. The assay can be described thus: human whole blood (HWB) assay, LTB4 production inhibition after calcimycin stimulation. It is filed as cell-based. The following applies: heparinized human whole blood, calcimycin 20 μM, plasma LTB4 by HTRF. The essentials:
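Plasma LTB4, quantified by HTRF immunoassay, is the read-out after calcimycin challenge (20 μM final, 30 min, 37 °C) of heparinized whole blood that had been pretreated with compound for 15 min at 37 °C; values given as IC50.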

Setting [2] is: LTA4H Enzyme 1 nM, Arg-AMC substrate 50 μM, room temperature 1 h, fluorescence, read-out: IC50 values of LTA4H Enzyme assay.

In the case of `CC(C)(C(=O)O)C1CCN(Cc2ccc([C@H]3COc4ccccc4O3)cc2)CC1` [Example 229, 2-{1-[(S)-4-(2,3-Dihydro-benzo[1,4]dioxin-2-yl)-benzyl]-piperidin-4-yl}-2-methyl-propionic acid formate salt], the IC50 was found to be 0.00385 µM on human LTA4 hydrolase (setting [2]) and 0.29 µM in assay [1].
Taken in the same sequence, the figures for `O=C(O)c1ccc(CC2CCN(Cc3ccc([C@H]4COc5cccnc5O4)cc3)CC2)cc1` [Example 234, 4-[(1-{4-[(3S)-2,3-dihydro[1,4]dioxino[2,3-b]pyridin-3-yl]benzyl}piperidin-4-yl)methyl]benzoic acid] were 0.00014 µM and 0.095 µM.
As for `CCCCN(Cc1ccc(C(=O)O)cc1)Cc1ccc([C@H]2COc3ccccc3O2)cc1` [Example 237, 4-[(butyl{4-[(2S)-2,3-dihydro-1,4-benzodioxin-2-yl]benzyl}amino)methyl]benzoic acid], the IC50 on human LTA4 hydrolase (setting [2]) stood at 0.00081 µM; in assay [1], 0.095 µM.
On to `CCOC(=O)c1nnc2n1CCN(Cc1ccc([C@H]3COc4cccnc4O3)cc1)C2` [Example 240, 7-[(S)-4-(2,3-dihydro-[1,4]dioxino[2,3-b]pyridin-3-yl)-benzyl]-5,6,7,8-tetrahydro-[1,2,4]triazolo[4,3-a]pyrazine-3-carboxylic acid ethyl ester], for which the IC50 was found to be 0.00056 µM at human LTA4 hydrolase (setting [2]) and 0.14 µM in assay [1].
In the case of `NC(=O)c1nnc2n1CCN(Cc1ccc([C@H]3COc4cccnc4O3)cc1)C2` [Example 241, 7-[(S)-4-(2,3-Dihydro-[1,4]dioxino[2,3-b]pyridin-3-yl)-benzyl]-5,6,7,8-tetrahydro-[1,2,4]triazolo[4,3-a]pyrazine-3-carboxylic acid amide], the IC50 at human LTA4 hydrolase (setting [2]) came out at 0.0005 µM; in assay [1], 0.11 µM.
Turning to `CNC(=O)c1nnc2n1CCN(Cc1ccc([C@H]3COc4cccnc4O3)cc1)C2` [Example 242, 7-[(S)-4-(2,3-dihydro-[1,4]dioxino[2,3-b]pyridin-3-yl)-benzyl]-5,6,7,8-tetrahydro-[1,2,4]triazolo[4,3-a]pyrazine-3-carboxylic acid methylamide], the values for the IC50 (at human LTA4 hydrolase (setting [2]); in assay [1]) were 0.0006 µM and 0.17 µM, respectively.
With `NC(=O)c1cn2c(n1)CN(Cc1ccc([C@H]3COc4cccnc4O3)cc1)CC2` [Example 243, 7-[(S)-4-(2,3-dihydro-[1,4]dioxino[2,3-b]pyridin-3-yl)-benzyl]-5,6,7,8-tetrahydro-imidazo[1,2-a]pyrazine-2-carboxylic acid amide], the IC50 at human LTA4 hydrolase (setting [2]) is 0.00042 µM; in assay [1] it was 0.099 µM.
For `CNC(=O)c1cn2c(n1)CN(Cc1ccc([C@H]3COc4cccnc4O3)cc1)CC2` [Example 244, 7-[(S)-4-(2,3-dihydro-[1,4]dioxino[2,3-b]pyridin-3-yl)-benzyl]-5,6,7,8-tetrahydro-imidazo[1,2-a]pyrazine-2-carboxylic acid methylamide] the same measures were 0.00026 µM and 0.12 µM.
As to `NC(=O)c1nnc2n1CCN(Cc1ccc([C@H]3COc4cccnc4O3)cc1)CC2` [Example 245, 6-[(S)-4-(2,3-dihydro-[1,4]dioxino[2,3-b]pyridin-3-yl)-benzyl]-5,6,7,8-tetrahydro-4H-1,2,3a,6-tetraaza-azulene-3-carboxylic acid amide], the values for the IC50 (at human LTA4 hydrolase (setting [2]); in assay [1]) were 0.00032 µM and 0.13 µM, respectively.
In the case of `CNC(=O)c1nnc2n1CCN(Cc1ccc([C@H]3COc4cccnc4O3)cc1)CC2` [Example 246, 6-[(S)-4-(2,3-Dihydro-[1,4]dioxino[2,3-b]pyridin-3-yl)-benzyl]-5,6,7,8-tetrahydro-4H-1,2,3a,6-tetraaza-azulene-3-carboxylic acid methylamide], the IC50 at human LTA4 hydrolase (setting [2]) stood at 0.00029 µM; in assay [1], 0.091 µM.
In the case of `C[C@H](O)CNC(=O)[C@H]1[C@@H]2CN(Cc3ccc([C@H]4COc5cccnc5O4)cc3)C[C@@H]21` [Example 247, [(1α,5α,6α)-3-[(S)-4-(2,3-dihydro-[1,4]dioxino[2,3-b]pyridin-3-yl)-benzyl]-3-aza-bicyclo[3.1.0]hexane]-6-carboxylic acid ((S)-2-hydroxy-propyl)-amide], the IC50 stood at 0.00017 µM on human LTA4 hydrolase (setting [2]) and 0.068 µM in assay [1].
On to `C[C@@H](CO)NC(=O)[C@H]1[C@@H]2CN(Cc3ccc([C@H]4COc5cccnc5O4)cc3)C[C@@H]21` [Example 248, [(1α,5α,6α)-3-[(S)-4-(2,3-Dihydro-[1,4]dioxino[2,3-b]pyridin-3-yl)-benzyl]-3-aza-bicyclo[3.1.0]hexane]-6-carboxylic acid ((S)-2-hydroxy-1-methyl-ethyl)-amide], for which the results for the half-inhibitory concentration (IC50) (at human LTA4 hydrolase (setting [2]); in assay [1]) were 0.00017 µM and 0.058 µM, respectively.
Regarding `N#Cc1cnc2n1CCN(Cc1ccc([C@H]3COc4cccnc4O3)cc1)C2` [Example 249, 7-[(S)-4-(2,3-Dihydro-[1,4]dioxino[2,3-b]pyridin-3-yl)-benzyl]-5,6,7,8-tetrahydro-imidazo[1,2-a]pyrazine-3-carbonitrile], the values for the IC50 (at human LTA4 hydrolase (setting [2]); in assay [1]) were 0.00025 µM and 0.058 µM, respectively.
With `CC(=O)N[C@H]1[C@@H]2CN(Cc3ccc([C@H]4COc5cccnc5O4)cc3)C[C@@H]21` [Example 250, N-{(1α,5α,6α)-3-[(S)-4-(2,3-Dihydro-[1,4]dioxino[2,3-b]pyridin-3-yl)-benzyl]-3-aza-bicyclo[3.1.0]hex-6-yl}-acetamide], the IC50 on human LTA4 hydrolase (setting [2]) was 0.00056 µM; in assay [1], 0.084 µM.
For `CC(C)(O)CNC(=O)[C@H]1[C@@H]2CN(Cc3ccc([C@H]4COc5cccnc5O4)cc3)C[C@@H]21` [Example 251, [(1α,5α,6α)-3-[(S)-4-(2,3-Dihydro-[1,4]dioxino[2,3-b]pyridin-3-yl)-benzyl]-3-aza-bicyclo[3.1.0]hexane-6-carboxylic acid (2-hydroxy-2-methyl-propyl)]-amide] the same measures were 0.00016 µM and 0.063 µM.
As to `COCC(=O)NC1CCN(Cc2ccc([C@H]3COc4cccnc4O3)cc2)CC1` [Example 252, N-{1-[(S)-4-(2,3-Dihydro-[1,4]dioxino[2,3-b]pyridin-3-yl)-benzyl]-piperidin-4-yl}-2-methoxy-acetamide], the concentration for half-maximal inhibition (IC50) came to 0.00015 µM at human LTA4 hydrolase (setting [2]) and 0.042 µM in assay [1].
Regarding `O=C(CO)N1CCN(Cc2ccc([C@H]3COc4cccnc4O3)cc2)CC1` [Example 253, 1-{4-[(S)-4-(2,3-Dihydro-[1,4]dioxino[2,3-b]pyridin-3-yl)-benzyl]-piperazin-1-yl}-2-hydroxy-ethanone], the IC50 is 0.0007 µM on human LTA4 hydrolase (setting [2]) and 0.11 µM in assay [1].
For `O=C(O)c1ccc(C2CN(Cc3ccc([C@H]4COc5ccccc5O4)cc3)C2)cc1` [Example 254, 4-{1-[(S)-4-(2,3-Dihydro-benzo[1,4]dioxin-2-yl)-benzyl]-azetidin-3-yl}-benzoic acid], the results for the IC50 (on human LTA4 hydrolase (setting [2]); in assay [1]) were 0.00024 µM and 0.084 µM, respectively.
With `CC(C)(O)CNC(=O)C1CCN(Cc2ccc([C@H]3COc4cccnc4O3)cc2)CC1` [Example 255, 1-[(S)-4-(2,3-Dihydro-[1,4]dioxino[2,3-b]pyridin-3-yl)-benzyl]-piperidine-4-carboxylic acid (2-hydroxy-2-methyl-propyl)-amide], the values for the IC50 (on human LTA4 hydrolase (setting [2]); in assay [1]) were 0.00017 µM and 0.076 µM, respectively.
As to `CS(=O)(=O)CC(=O)N1C[C@@H]2C[C@H]1CN2Cc1ccc([C@H]2COc3cccnc3O2)cc1` [Example 256, 1-{(1S,4S)-5-[(S)-4-(2,3-Dihydro-[1,4]dioxino[2,3-b]pyridin-3-yl)-benzyl]-2,5-diaza-bicyclo[2.2.1]hept-2-yl}-2-methanesulfonyl-ethanone], the results for the IC50 (on human LTA4 hydrolase (setting [2]); in assay [1]) were 0.00049 µM and 0.11 µM, respectively.
For `COCC(=O)N1CCCN(Cc2ccc([C@H]3COc4cccnc4O3)cc2)CC1` [Example 257, 1-{4-[(S)-4-(2,3-Dihydro-[1,4]dioxino[2,3-b]pyridin-3-yl)-benzyl]-[1,4]diazepan-1-yl}-2-methoxy-ethanone], the IC50 stood at 0.00048 µM on human LTA4 hydrolase (setting [2]) and 0.27 µM in assay [1].
Turning to `Nc1nc2c(s1)CN(Cc1ccc([C@H]3COc4cccnc4O3)cc1)CC2` [Example 258, 5-[(S)-4-(2,3-Dihydro-[1,4]dioxino[2,3-b]pyridin-3-yl)-benzyl]-4,5,6,7-tetrahydro-thiazolo[5,4-c]pyridin-2-ylamine], the 50% inhibitory concentration (IC50) at human LTA4 hydrolase (setting [2]) is 0.00037 µM; in assay [1] it was 0.21 µM.
As to `NC(=O)N[C@H]1C[C@H]2CC[C@@H](C1)N2Cc1ccc([C@H]2COc3cccnc3O2)cc1` [Example 259, {(endo)-8-[(S)-4-(2,3-Dihydro-[1,4]dioxino[2,3-b]pyridin-3-yl)-benzyl]-8-aza-bicyclo[3.2.1]oct-3-yl}-urea], the IC50 on human LTA4 hydrolase came to 0.0003 µM; in assay [1], 0.79 µM.
On to `CONC(=O)CC1CCN(Cc2ccc([C@H]3COc4cccnc4O3)cc2)CC1` [Example 260, 2-{1-[(S)-4-(2,3-Dihydro-[1,4]dioxino[2,3-b]pyridin-3-yl)-benzyl]-piperidin-4-yl}-N-methoxy-acetamide], for which the IC50 stood at 0.00057 µM on human LTA4 hydrolase (setting [2]) and 0.1 µM in assay [1].
